Measured values from patent US12595269B2, “Morpholine-like monoamine releasers” (Solvonis Therapeutics Ireland Holdings Limited, priority 2022, dated 2026).
Read-outs that look alike come from different tables or passages of the source.

Columns and labels:
[1] = Brain tissue binding (BTB) by equilibrium dialysis, rat brain homogenate; assay type: in vitro ADME; details: male, Sprague Dawley, pH 7.4
Description: Methods and Procedure: This study was performed in agreement with the previously described procedures to assure data integrity and adherence to GLP standards. Plasma protein binding and blood tissue binding of test items (0.5 μM) was determined using biological samples from male Sprague Dawley (SD) rats and humans. […] Dexamethasone was used as a control for lung tissue binding. Various biological samples were spiked with test compounds according to the methods that follow.
Preparation of brain homogenate samples: Test items were dissolved in DMSO (or an appropriate solvent) to give a 10 mM solution. Further dilutions, to obtain […] working solutions (WS), were then prepared using 50% acetonitrile in Milli Q water. These 100×WS were used to spike the brain homogenate to obtain a final concentration of 5 μM. From this initial spiking solution, control samples (n=3) referred to as T=0, were immediately extracted by protein precipitation.
An equilibrium dialysis method was performed to determine protein binding in the various biological samples described herein. Materials were prepared and methods were in accordance with the following procedures.
Membranes were prepared for use in the equilibrium dialysis experiment, by soaking in deionized water for at least 60 minutes. After this period, 20% of pure ethanol was added, and the membranes were left in this solution for at least 20 minutes. The membranes were then rinsed in Milli-Q water prior to use. […]
Dialysis buffer was prepared by dissolving Na2HPO4 8.69 g, KH2PO4 1.90 g, and NaCl 4.11 g in 1 L of MilliQ water, and adjusting the pH to 7.4 with H3PO4. […] In order to control the integrity of the membrane after the dialysis process, the presence of protein was assessed in the buffer compartment. […]
Samples were analyzed in a LC-MS/MS system using an analytical method to monitor the compound to internal standard peak area ratios as representative of the compound concentrations. Alternatively, samples were analyzed by RapidFire. […]

[2] = Lipophilicity by Chromatographic Hydrophobicity Index (CHI LogD); assay type: physicochemical
Description: Methods and Procedure: The methods employed herein comply with previously described procedures to assure data integrity and adherence to GLP regulations. Briefly, a CHI value was determined by comparing the retention time of a test compound to a linear curve based on a set of calibration compounds with known CHI values. The resultant CHI value can be further converted to a CHI Log D value using an established linear regression equation.
Reference compounds with known CHI values, including theophylline, phenyltetrazole, benzymidazole, colchicine, phenyltheophylline, acetophenone, indole, propiophenone, butyrophenone, valerophenone, were used to create a calibration line. Test compounds (10 mM) were prepared in DMSO on the same day of the experiment, when feasible. For sample preparation, 10 μL of test solution was diluted with 190 μL of a solution of Ammonium Acetate solution (50 mM) and Acetonitrile (1:1) pH7.4, which was then mixed via shaking at room temperature for 10 minutes. Test solutions were compared with the reference compounds via HPLC-UV, as described in Example 19. The gradient was calibrated by determining the retention time of each reference compound on a reverse phase LC system at a pH of 7.4.
The relationship of CHI with retention time is “CHI=Atr+B,” wherein A and B are the constants of a linear plot of CHI against their gradient retention times, and tr is retention time.
The test compounds were analyzed on the same system as the test mix. The equation generated from the calibration line for the reference compounds was then used to determine the unknown CHI value for the test compound. From the CHI value, the Log D was extrapolated according to the following equation, as described in Valko et al, 2001: Log D=0.0525×CHI pH7.4-1.467. Log D represents the log of the partitioning of a chemical compound between the lipid and aqueous phases.

[3] = pH 7.4, as stated in text under Table 10, read-out: calculated Log D values
[4] = pH 7.4, pH 7.4, HPLC-UV, read-out: Chi LogD

| Compound | fraction unbound at 5 h, 5 µM [1] | chromatographic logD [2, 3] | chromatographic logD [2, 4] |
| --- | --- | --- | --- |
| Clc1ccc(C23CNC(CO2)C3)cc1Cl (centres unmarked) [522A, 1-(3,4-dichlorophenyl)-2-oxa-5-azabicyclo[2.2.1]heptane] | 0.022 | 1.15 | 0.75 |
| CNC(C)Cc1ccc2c(c1)OCO2 (centres unmarked) [MDMA, reference compound] | ~0.4 | 0.29 | 0.29 |
| Clc1ccc([C@]23CN[C@H](CO2)C3)cc1Cl (single isomer, unassigned) [516A] | – | 1.15 | 0.75 |
| Clc1ccc([C@@]23CN[C@@H](CO2)C3)cc1Cl (single isomer, unassigned) [518A] | 0.0127 | 1.15 | 0.75 |
